Columns and labels:
CHO cells = experiment: DDAO spiked into media at 0-50 ppm or equivalent ppb, in duplicate by serial dilution; cell growth and viability; type: cell-based, Chinese hamster
From the text: In separate experiments, DDAO was spiked into media at differing concentrations between 0-50 ppm or equivalent ppb in duplicate using serial dilution of high DDAO containing-media to reduce error (FIGS. 3 and 4).

Bacillus bacteria = Bacillus bacteria in culture; Brycki et al.; cited from earlier work
[1] = system: CHO cells expressing FVIII; type: cell-based, Chinese hamster
Method: In order to determine the effect of DDAO levels in cell growth, experiments were undertaken using CHO cells expressing FVIII with varying levels of DDAO equivalent to the contaminating amount in certain lots of commercial soy hydrolysate.
Cells from a bioreactor containing CHO cells in BAV serum free media, DMEM/HAM's F12 medium (11.76 g) supplemented with soya-peptone (4 g), ethanolamine (1.53 mg), L-glutamine (0.6 g), NaHCO3 (2.0 g) and SYNPERONIC (PLURONIC®) F68 (0.25 g) (see International Patent Publ. WO/2006/045438) were cultured with 4 g/L soy peptone in 60 mL Roux flasks. Roux flasks provide a static, unmoving environment for the cells to grow.

SMILES: CCCCCCCCCCCC[N+](C)(C)[O-] [DDAO, dodecyldimethylamine oxide]
- DDAO level up to which there is a beneficial effect on cell growth (CHO cells; FIG. 3): 5-10 ppb
- DDAO level up to which there is a beneficial effect on cell growth (CHO cells; FIG. 4, duplicate samples): 6-10 ppm
- DDAO level above which the process of denitrification is slowed (Bacillus bacteria): above 75 parts per million
- DDAO level above which toxicity is shown ([1]; Chinese hamster): above 21.5 ppm
- DDAO level up to which there is a positive effect on cell growth ([1]; ppm equivalent in the soy hydrolysate, Roux flasks): up to 20 ppm

Reference: patent publication US9051544B2, “Method of enhancing cell growth using alkyl-amine-n-oxide (AANOx)” (BAXTER INTERNATIONAL INC., priority 2008, dated 2015)
